# Reference: ChEMBL document CHEMBL1201862, “PubChem BioAssay data set” (2004)
#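 In this assay, cells in 96-well plates receive the compound at five concentrations for 48 hours. Endpoints are linearly interpolated between the surrounding concentrations. At the GI50, growth is halved.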 The source made the active and inactive calls. Cut-off read from the data, not from the text of the source: active = GI50 up to about 1.1 µM and inactive = higher.
# Assays:
# Test in all cases: inhibition of tumour cell growth, NCI panel, 48 h
# OVCAR-3 = tested on: OVCAR-3
# ACHN = tested on: ACHN
# IGROV-1 = tested on: IGROV-1
# MDA-MB-435 = tested on: MDA-MB-435
# OVCAR-8 = tested on: OVCAR-8
# HL-60 = tested on: HL-60
# MCF7 = tested on: MCF7
# HCT-116 = tested on: HCT-116
# UACC-62 = tested on: UACC-62
# T47D = tested on: T47D
# HOP-62 = tested on: HOP-62
# SK-MEL-2 = tested on: SK-MEL-2
# SW-620 = tested on: SW-620
# HCT-15 = tested on: HCT-15
# NCI-H522 = tested on: NCI-H522
# A549 = tested on: A549
# SNB-75 = tested on: SNB-75
# DU-145 = tested on: DU-145
# SK-MEL-5 = tested on: SK-MEL-5
# RPMI-8226 = tested on: RPMI-8226
# OVCAR-4 = tested on: OVCAR-4
# M14 = tested on: M14
# SN12C = tested on: SN12C
# MOLT-4 = tested on: MOLT-4
# Malme-3M = tested on: Malme-3M
# SK-MEL-28 = tested on: SK-MEL-28
# SK-OV-3 = tested on: SK-OV-3
# HT-29 = tested on: HT-29
# OVCAR-5 = tested on: OVCAR-5
# MDA-MB-231 = tested on: MDA-MB-231
# CAKI-1 = tested on: CAKI-1
# NCI-H226 = tested on: NCI-H226
# LOX IMVI = tested on: LOX IMVI
# TK-10 = tested on: TK-10
# NCI-H460 = tested on: NCI-H460
# SNB-19 = tested on: SNB-19
# NCI-H23 = tested on: NCI-H23
# SR = tested on: SR
# SF-268 = tested on: SF-268
# UO-31 = tested on: UO-31
# K562 = tested on: K562
# HOP-92 = tested on: HOP-92
# U-251 = tested on: U-251
# SF-539 = tested on: SF-539
# EKVX = tested on: EKVX
# UACC-257 = tested on: UACC-257
# CCRF-CEM = tested on: CCRF-CEM
# COLO 205 = tested on: COLO 205
# PC-3 = tested on: PC-3
# Hs-578T = tested on: Hs-578T
# NCI/ADR-RES = tested on: NCI/ADR-RES
# 786-0 = tested on: 786-0
# BT-549 = tested on: BT-549
# SF-295 = tested on: SF-295
# RXF 393 = tested on: RXF 393
# HCC 2998 = tested on: HCC 2998
# A498 = tested on: A498
# KM12 = tested on: KM12
# MDA-N = tested on: MDA-N
smiles,measurement,setting,value
CCOC(=O)C1=C(c2ccccc2)N(C)c2ccccc2S1,GI50,OVCAR-3,36 µM (inactive)
same,GI50,ACHN,24.1 µM (inactive)
same,GI50,IGROV-1,32.4 µM (inactive)
same,GI50,MDA-MB-435,33.2 µM (inactive)
same,GI50,OVCAR-8,33.6 µM (inactive)
same,GI50,HL-60,37.4 µM (inactive)
same,GI50,MCF7,36 µM (inactive)
same,GI50,HCT-116,25.2 µM (inactive)
same,GI50,UACC-62,19 µM (inactive)
same,GI50,T47D,18.1 µM (inactive)
same,GI50,HOP-62,36.4 µM (inactive)
same,GI50,SK-MEL-2,23.2 µM (inactive)
same,GI50,SW-620,44.4 µM (inactive)
same,GI50,HCT-15,14.6 µM
same,GI50,NCI-H522,25.6 µM (inactive)
same,GI50,A549,35.6 µM (inactive)
same,GI50,SNB-75,38.6 µM (inactive)
same,GI50,DU-145,44.2 µM (inactive)
same,GI50,SK-MEL-5,16.1 µM (inactive)
same,GI50,RPMI-8226,17 µM (inactive)
same,GI50,OVCAR-4,30.1 µM (inactive)
same,GI50,M14,34.5 µM (inactive)
same,GI50,SN12C,23.9 µM (inactive)
same,GI50,MOLT-4,32.4 µM (inactive)
same,GI50,Malme-3M,40.6 µM (inactive)
same,GI50,SK-MEL-28,38.9 µM (inactive)
same,GI50,SK-OV-3,92.5 µM (inactive)
same,GI50,HT-29,17.4 µM (inactive)
same,GI50,OVCAR-5,35.1 µM (inactive)
same,GI50,MDA-MB-231,29.6 µM (inactive)
same,GI50,CAKI-1,31 µM (inactive)
same,GI50,NCI-H226,21.7 µM (inactive)
same,GI50,LOX IMVI,16.7 µM (inactive)
same,GI50,TK-10,46.5 µM (inactive)
same,GI50,NCI-H460,24.7 µM (inactive)
same,GI50,SNB-19,69.5 µM (inactive)
same,GI50,NCI-H23,20.1 µM (inactive)
same,GI50,SR,31.6 µM (inactive)
same,GI50,SF-268,29.4 µM (inactive)
same,GI50,UO-31,22.4 µM (inactive)
same,GI50,K562,36.8 µM (inactive)
same,GI50,HOP-92,44.5 µM (inactive)
same,GI50,U-251,19.8 µM (inactive)
same,GI50,SF-539,37.2 µM (inactive)
same,GI50,EKVX,32 µM (inactive)
same,GI50,UACC-257,31.6 µM (inactive)
same,GI50,CCRF-CEM,31 µM (inactive)
same,GI50,COLO 205,31.3 µM (inactive)
same,GI50,PC-3,29.9 µM (inactive)
same,GI50,Hs-578T,23.3 µM (inactive)
same,GI50,NCI/ADR-RES,22.3 µM (inactive)
same,GI50,786-0,31.8 µM (inactive)
same,GI50,BT-549,21.5 µM (inactive)
same,GI50,SF-295,35.8 µM (inactive)
CC1(C)CC(=O)C2(CC(CSc3ccccc3)C(CS(=O)(=O)c3ccccc3)C2)C(=O)C1 (stereo not given),GI50,OVCAR-3,> 100 µM (inactive)
same,GI50,ACHN,> 100 µM (inactive)
same,GI50,RXF 393,> 100 µM (inactive)
same,GI50,IGROV-1,> 100 µM (inactive)
same,GI50,MDA-MB-435,> 100 µM (inactive)
same,GI50,OVCAR-8,> 100 µM (inactive)
same,GI50,MCF7,> 100 µM (inactive)
same,GI50,HCC 2998,> 100 µM (inactive)
same,GI50,HCT-116,> 100 µM (inactive)
same,GI50,UACC-62,> 100 µM (inactive)
same,GI50,T47D,45.5 µM (inactive)
same,GI50,HOP-62,> 100 µM (inactive)
same,GI50,SK-MEL-2,> 100 µM (inactive)
same,GI50,SW-620,> 100 µM (inactive)
same,GI50,HCT-15,> 100 µM
same,GI50,NCI-H522,> 100 µM (inactive)
same,GI50,A549,> 100 µM (inactive)
same,GI50,SNB-75,4.85 µM (inactive)
same,GI50,DU-145,> 100 µM (inactive)
same,GI50,SK-MEL-5,> 100 µM (inactive)
same,GI50,RPMI-8226,66.4 µM (inactive)
same,GI50,OVCAR-4,> 100 µM (inactive)
same,GI50,A498,> 100 µM (inactive)
same,GI50,M14,> 100 µM (inactive)
same,GI50,SN12C,> 100 µM (inactive)
same,GI50,MOLT-4,> 100 µM (inactive)
same,GI50,SK-MEL-28,> 100 µM (inactive)
same,GI50,SK-OV-3,> 100 µM (inactive)
same,GI50,HT-29,78.3 µM (inactive)
same,GI50,OVCAR-5,> 100 µM (inactive)
same,GI50,KM12,> 100 µM (inactive)
same,GI50,MDA-MB-231,> 100 µM (inactive)
same,GI50,CAKI-1,> 100 µM (inactive)
same,GI50,NCI-H226,> 100 µM (inactive)
same,GI50,LOX IMVI,> 100 µM (inactive)
same,GI50,TK-10,> 100 µM (inactive)
same,GI50,SNB-19,> 100 µM (inactive)
same,GI50,NCI-H23,> 100 µM (inactive)
same,GI50,SF-268,> 100 µM (inactive)
same,GI50,UO-31,> 100 µM (inactive)
same,GI50,K562,> 100 µM (inactive)
same,GI50,HOP-92,> 100 µM (inactive)
same,GI50,U-251,> 100 µM (inactive)
same,GI50,SF-539,> 100 µM (inactive)
same,GI50,EKVX,> 100 µM (inactive)
same,GI50,UACC-257,> 100 µM (inactive)
same,GI50,CCRF-CEM,> 100 µM (inactive)
same,GI50,COLO 205,> 100 µM (inactive)
same,GI50,PC-3,30.8 µM (inactive)
same,GI50,Hs-578T,> 100 µM (inactive)
same,GI50,NCI/ADR-RES,> 100 µM (inactive)
same,GI50,786-0,> 100 µM (inactive)
same,GI50,BT-549,> 100 µM (inactive)
same,GI50,SF-295,> 100 µM (inactive)
COc1cc(N(CCC#N)CCC#N)ccc1C(/N=N/c1ccccc1C)=N\NC(=O)c1ccc(C)cc1,GI50,OVCAR-3,24.2 µM (inactive)
same,GI50,RXF 393,> 100 µM (inactive)
same,GI50,IGROV-1,75 µM (inactive)
same,GI50,MDA-MB-435,29.3 µM (inactive)
same,GI50,OVCAR-8,71 µM (inactive)
same,GI50,HL-60,2.15 µM (inactive)
same,GI50,MDA-N,23.8 µM (inactive)
same,GI50,HCC 2998,85.3 µM (inactive)
same,GI50,HCT-116,36.1 µM (inactive)
same,GI50,UACC-62,43.4 µM (inactive)
same,GI50,T47D,38.2 µM (inactive)
same,GI50,HOP-62,> 100 µM (inactive)
same,GI50,SK-MEL-2,43.9 µM (inactive)
same,GI50,SW-620,72.9 µM (inactive)
same,GI50,HCT-15,> 100 µM
same,GI50,NCI-H522,25.2 µM (inactive)
same,GI50,A549,59.6 µM (inactive)
same,GI50,DU-145,> 100 µM (inactive)
same,GI50,SK-MEL-5,> 100 µM (inactive)
same,GI50,OVCAR-4,59.8 µM (inactive)
same,GI50,M14,> 100 µM (inactive)
same,GI50,SN12C,44.1 µM (inactive)
same,GI50,MOLT-4,28 µM (inactive)
same,GI50,Malme-3M,34.7 µM (inactive)
same,GI50,SK-MEL-28,> 100 µM (inactive)
same,GI50,SK-OV-3,> 100 µM (inactive)
same,GI50,HT-29,85.3 µM (inactive)
same,GI50,OVCAR-5,> 100 µM (inactive)
same,GI50,KM12,49.1 µM (inactive)
same,GI50,MDA-MB-231,25.5 µM (inactive)
same,GI50,CAKI-1,> 100 µM (inactive)
same,GI50,NCI-H226,> 100 µM (inactive)
same,GI50,LOX IMVI,40.8 µM (inactive)
same,GI50,TK-10,> 100 µM (inactive)
same,GI50,NCI-H460,73.5 µM (inactive)
same,GI50,SNB-19,63 µM (inactive)
same,GI50,NCI-H23,91.8 µM (inactive)
same,GI50,SF-268,64.4 µM (inactive)
same,GI50,UO-31,76.2 µM (inactive)
same,GI50,K562,29.8 µM (inactive)
same,GI50,HOP-92,53.8 µM (inactive)
same,GI50,U-251,42.3 µM (inactive)
same,GI50,EKVX,28.4 µM (inactive)
same,GI50,UACC-257,61.2 µM (inactive)
same,GI50,CCRF-CEM,15.2 µM (inactive)
same,GI50,COLO 205,33.7 µM (inactive)
same,GI50,PC-3,59.3 µM (inactive)
same,GI50,Hs-578T,> 100 µM (inactive)
same,GI50,NCI/ADR-RES,> 100 µM (inactive)
same,GI50,786-0,36.6 µM (inactive)
same,GI50,BT-549,98.2 µM (inactive)
same,GI50,SF-295,> 100 µM (inactive)
